Results taken from patent publication US8518945B2, “Pyrrolopyrazine kinase inhibitors” (Hoffmann-La Roche Inc., priority 2010, dated 2013).

Target: T1, h-jak3(810-1124) (JAK3: Recombinant human kinase domain) (Homo sapiens, UniProt P52333)
T1 construct: jak3(810- 1124)-sf9-c; made in house; host or cells: Sf9
Assay: Determination of IC50 of Janus Kinase (JAK) inhibition: JAK3 radioactive end-point 33P-ATP kinase assay
Format: biochemical
Conditions: no additive; ATP 1.5 uM, peptide 50 uM, 20 minutes, room temperature; read-out: Ic50 h-jak3(810-1124)-sf9-c: no additive
Description: Determination of IC50 of Janus Kinase (JAK) Inhibition:
Enzymes and peptide substrate used are described below: • JAK1: Recombinant human kinase domain from Invitrogen (Cat # PV4774) • JAK3: Recombinant human kinase domain from Millipore (Cat # 14-629) or prepared. • JAK2: Recombinant human kinase domain from Millipore (Cat # 14-640) • Substrate: N-terminally biotinylated 14-mer peptide derived from activation loop of JAK1 with sequence of the peptide substrate: Biotin-[sequence]
Assay conditions— used are described below: • Assay Buffer: JAK Kinase Buffer: 50 mM Hepes [pH 7.2], 10 mM MgCl2, 1 mM DTT, 1 mg/ml BSA. The assay was carried out in this buffer. • Assay Format The kinase activity of all three JAK kinases was measured using a radioactive, end-point assay and with trace amounts of ^33P-ATP. The assays were carried out in 96-well polypropylene plates. Experimental Method:
All concentrations were final in the reaction mixture and all incubations were carried at room temperature. […] Final concentration of DMSO in the reaction was 10%. • 2) Compounds were preincubated with enzyme (0.5 nM JAK3 (commercially available), 0.2 nM JAK3 (prepared), 1 nM JAK2, 5 nM JAK1) for 10 minutes. • 3) Reactions were initiated by the addition of a cocktail of the two substrates (ATP and peptide premixed in the JAK Kinase Buffer). In the JAK2/JAK3 assays, ATP and the peptide were used at concentrations of 1.5 uM and 50 uM, respectively. JAK1 assay was carried out at an ATP concentration of 10 uM and a peptide concentration of 50 uM. • 4) The duration of the assay for JAK2 and JAK3 is 20 minutes. JAK1 assay was carried out for 40 minutes. With all three enzymes, reactions were terminated by the addition of 0.5M EDTA to a final concentration of 100 mM. • 5) 25 ul of terminated reactions were transferred to 150 ul of a 7.5% (v/v) slurry of streptavidin-coated sepharose beads in MgCl2- and CaCl2-free 1× Phosphate Buffered Saline containing 50 mM of EDTA in 96-well, 1.2 um MultiScreen-BV filter plates. • 6) After a 30-minute incubation, the beads were washed under vacuum with the following buffers: • a. 3 to 4 washes with 200 ul of 2M NaCl. • b. 3 to 4 washes with 200 ul of 2M NaCl plus 1% (v/v) phosphoric acid. • c. 1 wash with water. • 7) Washed plates were dried in a 60° C. oven for between 1 to 2 hours. • 8) 70 ul of Microscint 20 scintillation fluid was added to each well of filter plates and after at least 30 minutes of incubation, radioactive counts were measured in a Perkinelmer microplate scintillation counter.

T1 sequence (P52333 810-1124): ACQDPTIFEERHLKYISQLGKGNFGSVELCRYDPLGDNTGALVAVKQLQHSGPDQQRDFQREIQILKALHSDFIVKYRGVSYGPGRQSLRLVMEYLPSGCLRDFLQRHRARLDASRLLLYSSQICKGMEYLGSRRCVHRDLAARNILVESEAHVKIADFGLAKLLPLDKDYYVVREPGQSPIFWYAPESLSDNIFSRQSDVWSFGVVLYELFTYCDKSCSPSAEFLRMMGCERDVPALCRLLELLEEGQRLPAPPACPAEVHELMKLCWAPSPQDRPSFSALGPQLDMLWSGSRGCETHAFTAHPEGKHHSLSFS

With `Cn1cc(-c2cnc3[nH]cc(C(=O)N[C@@H](C(=O)N4CC[C@@H](C#N)C4)C4CC4)c3n2)cn1` [Example I-82, 2-(1-Methyl-1H-pyrazol-4-yl)-5H-pyrrolo[2,3-b]pyrazine-7-carboxylic acid [(R)-2-((R)-3-cyano-pyrrolidin-1-yl)-1-cyclopropyl-2-oxo-ethyl]-amide] the IC50 was no more than 0.32 nM.

Compound `O=C(N[C@@H](C(=O)N1CC2(COC2)C1)C1CC1)c1c[nH]c2ncc(C3CC3)nc12` [Example I-84, 2-Cyclopropyl-5H-pyrrolo[2,3-b]pyrazine-7-carboxylic acid [(R)-1-cyclopropyl-2-(2-oxa-6-aza-spiro[3.3]hept-6-yl)-2-oxo-ethyl]-amide] has an IC50 of 0.75 nM.

`Cn1cc(-c2cnc3[nH]cc(C(=O)N[C@@H](C(=O)N4CC5(COC5)C4)C4CC4)c3n2)cn1` [Example I-85, 2-(1-Methyl-1H-pyrazol-4-yl)-5H-pyrrolo[2,3-b]pyrazine-7-carboxylic acid [(R)-1-cyclopropyl-2-(2-oxa-6-aza-spiro[3.3]hept-6-yl)-2-oxo-ethyl]-amide] gave an IC50 of 0.85 nM.

`O=C(N[C@@H](C(=O)N1C[C@@H]2[C@@H](CO)[C@@H]2C1)C1CC1)c1c[nH]c2ncc(C3CC3)nc12` [Example I-86, 2-Cyclopropyl-5H-pyrrolo[2,3-b]pyrazine-7-carboxylic acid [(R)-1-cyclopropyl-2-((1S,5R,6R)-6-hydroxymethyl-3-aza-bicyclo[3.1.0]hex-3-yl)-2-oxo-ethyl]-amide] showed an IC50 of 4.02 nM.

`Cn1cc(-c2cnc3[nH]cc(C(=O)N[C@@H](C(=O)N4C[C@@H]5[C@@H](CO)[C@@H]5C4)C4CC4)c3n2)cn1` [Example I-87, 2-(1-Methyl-1H-pyrazol-4-yl)-5H-pyrrolo[2,3-b]pyrazine-7-carboxylic acid [(R)-1-cyclopropyl-2-((1S,5R,6R)-6-hydroxymethyl-3-aza-bicyclo[3.1.0]hex-3-yl)-2-oxo-ethyl]-amide] showed an IC50 of 4.49 nM.

In the case of `O=C(N[C@@H](C(=O)N1CCS(=O)(=O)CC1)C1CC1)c1c[nH]c2ncc(C3CC3)nc12` [Example I-88, 2-Cyclopropyl-5H-pyrrolo[2,3-b]pyrazine-7-carboxylic acid [(R)-1-cyclopropyl-2-(1,1-dioxo-1λ^6-thiomorpholin-4-yl)-2-oxo-ethyl]-amide], the IC50 is reported as 1.23 nM.

`Cn1cc(-c2cnc3[nH]cc(C(=O)N[C@@H](C(=O)N4CCS(=O)(=O)CC4)C4CC4)c3n2)cn1` [Example I-89, 2-(1-Methyl-1H-pyrazol-4-yl)-5H-pyrrolo[2,3-b]pyrazine-7-carboxylic acid [(R)-1-cyclopropyl-2-(1,1-dioxo-1λ^6-thiomorpholin-4-yl)-2-oxo-ethyl]-amide] gave an IC50 of 4.23 nM.

Compound `CC(C)(C)[C@@H](NC(=O)c1c[nH]c2ncc(OC3CCCCC3)nc12)C(=O)N1CCC(C#N)CC1` [Example I-90, 2-Cyclohexyloxy-5H-pyrrolo[2,3-b]pyrazine-7-carboxylic acid [(R)-1-(4-cyano-piperidine-1-carbonyl)-2,2-dimethyl-propyl]-amide] has an IC50 of 9.73 nM.

Work on `CC(C)(C)[C@@H](NC(=O)c1c[nH]c2ncc(OCCC(F)(F)F)nc12)C(=O)N1CCC(C#N)CC1` [Example I-91, 2-(3,3,3-Trifluoro-propoxy)-5H-pyrrolo[2,3-b]pyrazine-7-carboxylic acid [(R)-1-(4-cyano-piperidine-1-carbonyl)-2,2-dimethyl-propyl]-amide] yielded an IC50 of 17 nM.

`CC(C)(C)[C@@H](NC(=O)c1c[nH]c2ncc(OC3CCCC3)nc12)C(=O)N1CCC(C#N)CC1` [Example I-92, 2-Cyclopentyloxy-5H-pyrrolo[2,3-b]pyrazine-7-carboxylic acid [(R)-1-(4-cyano-piperidine-1-carbonyl)-2,2-dimethyl-propyl]-amide] gave an IC50 of 10.9 nM.

Compound `CC(C)(C)[C@@H](NC(=O)c1c[nH]c2ncc(OCC(F)(F)F)nc12)C(=O)N1CCC(C#N)CC1` [Example I-93, 2-(2,2,2-Trifluoro-ethoxy)-5H-pyrrolo[2,3-b]pyrazine-7-carboxylic acid [(R)-1-(4-cyano-piperidine-1-carbonyl)-2,2-dimethyl-propyl]-amide] has an IC50 of 16.4 nM.

For `CC(C)Oc1cnc2[nH]cc(C(=O)N[C@@H](C(=O)N3CCC(C#N)CC3)C(C)(C)C)c2n1` [Example I-94, 2-Isopropoxy-5H-pyrrolo[2,3-b]pyrazine-7-carboxylic acid [(R)-1-(4-cyano-piperidine-1-carbonyl)-2,2-dimethyl-propyl]-amide], the IC50 was 3.66 nM.

Work on `N#CC1CN(C(=O)[C@H](NC(=O)c2c[nH]c3ncc(N4Cc5c(Cl)cccc5C4=O)nc23)C2CC2)C1` [Example I-95, 2-(4-Chloro-1-oxo-1,3-dihydro-isoindol-2-yl)-5H-pyrrolo[2,3-b]pyrazine-7-carboxylic acid [(R)-2-(3-cyano-azetidin-1-yl)-1-cyclopropyl-2-oxo-ethyl]-amide] yielded an IC50 of 2.73 nM.

Work on `N#CC1CN(C(=O)[C@H](NC(=O)c2c[nH]c3ncc(-c4cc5nccc(Cl)c5s4)nc23)C2CC2)C1` [Example I-96, 2-(7-Chloro-thieno[3,2-b]pyridin-2-yl)-5H-pyrrolo[2,3-b]pyrazine-7-carboxylic acid [(R)-2-(3-cyano-azetidin-1-yl)-1-cyclopropyl-2-oxo-ethyl]-amide] yielded an IC50 of 0.69 nM.

`N#CC1CN(C(=O)[C@H](NC(=O)c2c[nH]c3ncc(-c4cc5nccc(N6CCCC6)c5s4)nc23)C2CC2)C1` [Example I-97, 2-(7-Pyrrolidin-1-yl-thieno[3,2-b]pyridin-2-yl)-5H-pyrrolo[2,3-b]pyrazine-7-carboxylic acid [(R)-2-(3-cyano-azetidin-1-yl)-1-cyclopropyl-2-oxo-ethyl]-amide] was tested, and the IC50 was 3.91 nM.

Compound `N#CC1CN(C(=O)[C@H](NC(=O)c2c[nH]c3ncc(-c4cc5nccc(OCC(F)(F)F)c5s4)nc23)C2CC2)C1` [Example I-98, 2-[7-(2,2,2-Trifluoro-ethoxy)-thieno[3,2-b]pyridin-2-yl]-5H-pyrrolo[2,3-b]pyrazine-7-carboxylic acid [(R)-2-(3-cyano-azetidin-1-yl)-1-cyclopropyl-2-oxo-ethyl]-amide] has an IC50 of 2.16 nM.

`COc1ccnc2cc(-c3cnc4[nH]cc(C(=O)N[C@@H](C(=O)N5CC(C#N)C5)C5CC5)c4n3)sc12` [Example I-99, 2-(7-Methoxy-thieno[3,2-b]pyridin-2-yl)-5H-pyrrolo[2,3-b]pyrazine-7-carboxylic acid [(R)-2-(3-cyano-azetidin-1-yl)-1-cyclopropyl-2-oxo-ethyl]-amide] showed an IC50 of 0.78 nM.

Compound `C[C@@H](NC(=O)c1c[nH]c2ncc(-c3cc4nccc(Cl)c4s3)nc12)C(=O)N1CC(C#N)C1` [Example I-100, 2-(7-Chloro-thieno[3,2-b]pyridin-2-yl)-5H-pyrrolo[2,3-b]pyrazine-7-carboxylic acid [(R)-2-(3-cyano-azetidin-1-yl)-1-methyl-2-oxo-ethyl]-amide] has an IC50 of 16 nM.

`C[C@@H](NC(=O)c1c[nH]c2ncc(-c3cc4nccc(N5CCCC5)c4s3)nc12)C(=O)N1CC(C#N)C1` [Example I-101, 2-(7-Pyrrolidin-1-yl-thieno[3,2-b]pyridin-2-yl)-5H-pyrrolo[2,3-b]pyrazine-7-carboxylic acid [(R)-2-(3-cyano-azetidin-1-yl)-1-methyl-2-oxo-ethyl]-amide] gave an IC50 of 37 nM.

With `C[C@@H](NC(=O)c1c[nH]c2ncc(-c3cc4nccc(OCC(F)(F)F)c4s3)nc12)C(=O)N1CC(C#N)C1` [Example I-102, 2-[7-(2,2,2-Trifluoro-ethoxy)-thieno[3,2-b]pyridin-2-yl]-5H-pyrrolo[2,3-b]pyrazine-7-carboxylic acid [(R)-2-(3-cyano-azetidin-1-yl)-1-methyl-2-oxo-ethyl]-amide] the IC50 was 43.1 nM.

For `COc1ccnc2cc(-c3cnc4[nH]cc(C(=O)N[C@H](C)C(=O)N5CC(C#N)C5)c4n3)sc12` [Example I-103, 2-(7-Methoxy-thieno[3,2-b]pyridin-2-yl)-5H-pyrrolo[2,3-b]pyrazine-7-carboxylic acid [(R)-2-(3-cyano-azetidin-1-yl)-1-methyl-2-oxo-ethyl]-amide], the IC50 was 8.34 nM.

Work on `CCn1cc(-c2cnc3[nH]cc(C(=O)N[C@@H](CC(F)(F)F)C(=O)N4CCC(C#N)CC4)c3n2)cn1` [Example I-105, 2-(1-Ethyl-1H-pyrazol-4-yl)-5H-pyrrolo[2,3-b]pyrazine-7-carboxylic acid [(S)-1-(4-cyano-piperidine-1-carbonyl)-3,3,3-trifluoro-propyl]-amide] yielded an IC50 of 2260 nM.

`CCn1cc(-c2cnc3[nH]cc(C(=O)N[C@H](CC(F)(F)F)C(=O)N4CCC(C#N)CC4)c3n2)cn1` [Example I-106, 2-(1-Ethyl-1H-pyrazol-4-yl)-5H-pyrrolo[2,3-b]pyrazine-7-carboxylic acid [(R)-1-(4-cyano-piperidine-1-carbonyl)-3,3,3-trifluoro-propyl]-amide] was tested, and the IC50 was 2.61 nM.

In the case of `N#CC1CCN(C(=O)[C@H](NC(=O)c2c[nH]c3ncc(-c4cn(C5CCCC5)nn4)nc23)C2CC2)CC1` [Example I-107, 2-(1-Cyclopentyl-1H-[1,2,3]triazol-4-yl)-5H-pyrrolo[2,3-b]pyrazine-7-carboxylic acid [(R)-2-(4-cyano-piperidin-1-yl)-1-cyclopropyl-2-oxo-ethyl]-amide], the IC50 is reported as 6.57 nM.

`N#CC1CCN(C(=O)[C@H](NC(=O)c2c[nH]c3ncc(-c4cn(-c5ccccc5)nn4)nc23)C2CC2)CC1` [Example I-108, 2-(1-Phenyl-1H-[1,2,3]triazol-4-yl)-5H-pyrrolo[2,3-b]pyrazine-7-carboxylic acid [(R)-2-(4-cyano-piperidin-1-yl)-1-cyclopropyl-2-oxo-ethyl]-amide] gave an IC50 of 6.05 nM.

With `C[C@@H](NC(=O)c1c[nH]c2ncc(-c3cccc(N4CCCC4)c3)nc12)C(=O)N1CC(C#N)C1` [Example I-109, 2-(3-Pyrrolidin-1-yl-phenyl)-5H-pyrrolo[2,3-b]pyrazine-7-carboxylic acid [(R)-2-(3-cyano-azetidin-1-yl)-1-methyl-2-oxo-ethyl]-amide] the IC50 was 0.61 nM.

Work on `CNC(=O)c1cccc(-c2cnc3[nH]cc(C(=O)N[C@H](C)C(=O)N4CC(C#N)C4)c3n2)c1` [Example I-110, 2-(3-Methylcarbamoyl-phenyl)-5H-pyrrolo[2,3-b]pyrazine-7-carboxylic acid [(R)-2-(3-cyano-azetidin-1-yl)-1-methyl-2-oxo-ethyl]-amide] yielded an IC50 of 1.22 nM.
